The subject of data set [1] is renally impaired patients on hemodialysis with moderate or severe uremic pruritus. Kind of data set: Same trial: Hospital Anxiety and Depression Scale (HADS). The data set is classed as in vivo, human. An excerpt:
The primary endpoint was the change from Baseline to the Evaluation Period (Study weeks 7 and 8) in the modified intent-to-treat population. Quality of life-related secondary endpoints included change from Day 1 to the Evaluation Period in itching-related quality of life (using the Skindex-10 (FIG. 8)) and itching-related sleep disruption (using the Itch Medical Outcomes Study [Itch MOS] (FIG. 9), SLP-9). The Hospital Anxiety and Depression Score (HADS) used as a general measure of anxiety and depression. All patient-reported outcomes measures were selected based on their prior validation in uremic pruritus patients specifically or in the dialysis population more generally.
The primary and quality of life secondary endpoint analyses used a mixed model repeated measures ANCOVA with the main effects of treatment and site and baseline worst itch NRS score as the covariate. The model included time (i.e. Visit) as a factor variable and treatment*time (with placebo as the reference category) with an unstructured covariance structure for repeated measures. Data from all post-baseline visits were used to fit the model. For the primary endpoint, the baseline value was defined as the mean of worst itch daytime and nighttime NRS scores used for satisfying the protocol inclusion criterion #5 (mean worst itching NRS≧4.5 based on a total of 3 daytime and 3 nighttime measurements from 3 dialysis visits). For the secondary endpoints, the baseline value was based on a measurement taken on Study Day 1, prior to randomization. A pre-specified step-down procedure was used. The first comparison was of nalbuphine 120 mg BID dose vs. placebo. If the first comparison was significant at the p<0.05 level, then the comparison between the nalbuphine 60 mg BID dose vs. placebo would be conducted. Patients with a 15% or greater response in worst itch NRS were analyzed using a Cochran-Mantel-Haenszel (CMH) test. Analysis of the Itch MOS utilized the SLP-9 scoring algorithm.
In the first 2 weeks of treatment, patients were blindly force-titrated to their assigned target dose, with the patients in the active arms reaching a dose of 60 mg BID (NAL 60) after the first week and, for those in the high dose group, to 120 mg BID (NAL 120) after the second week. Study drug was administered in blister cards containing the labeled morning and evening doses for each day of the week. Subsequently, patients continued stable doses of the study drug for an additional 6 weeks and were then washed off study drug and followed for another 2 weeks for itching intensity and safety. […]

Data set [2] shares this test system. Kind of data set: Same trial: safety and tolerability (adverse events, discontinuation). Type of data set: in vivo, human. The source says: The term “adverse event” (AE) as used herein is defined as any untoward medical occurrence in a clinical investigation patient reported on or after the first screening date. […] An AE can therefore be any unfavorable and unintended sign (including an abnormal laboratory finding), symptom whether or not related to the medicinal (investigational) product, or disease temporally associated with the use of a medicinal (investigational) product. Typical adverse events include nausea, vomiting, somnolence, dizziness and hallucination. In accordance with the present invention, the rate of adverse events after the treatment is substantially the same as the rate of adverse events after administering a placebo for the same period of time.
This clinical study was a parallel, double-blind, placebo-controlled trial in which renally impaired patients on hemodialysis with moderate or severe uremic pruritus were randomized in a 1:1:1 ratio to nalbuphine ER tablets to a target dose of 120 mg BID or 60 mg BID, or matching placebo tablets BID. Medications taken for treatment of pruritus (“antipruritic medications”) were not prohibited, but their use was recorded throughout the study. Use of skin emollients was also not restricted. A placebo comparator was chosen because there are no approved treatments for uremic pruritus in the United States or Europe or an established standard of care that could serve as an active control.
The primary objectives were to evaluate the effects on itching intensity using a Worst Itching Intensity Numerical Rating Scale (NRS, 0 [no itching]-10 [worst possible itching]) (FIG. 7) as well as safety and tolerability. The study was conducted at 46 United States investigative sites and 6 investigative sites in Romania and Poland. The Sponsor oversaw the conduct of the trial and an independent unblinded Data Safety Monitoring Board reviewed safety data approximately once a month during the conduct of the trial.
In the first 2 weeks of treatment, patients were blindly force-titrated to their assigned target dose, with the patients in the active arms reaching a dose of 60 mg BID (NAL 60) after the first week and, for those in the high dose group, to 120 mg BID (NAL 120) after the second week. Study drug was administered in blister cards containing the labeled morning and evening doses for each day of the week. Subsequently, patients continued stable doses of the study drug for an additional 6 weeks and were then washed off study drug and followed for another 2 weeks for itching intensity and safety. No down-titration was permitted during the study, although patients who missed 6 or more consecutive doses during the Stable Dose Period (Weeks 3-8) could, with the Medical Monitor's approval, re-start treatment with blinded re-titration of just the morning or evening dose for 3 days before returning to the original dose. Patients were allowed to remain on their background antipruritic medications such as antihistamines and the use of these medications and indication for treatment was collected.

Structures are written as SMILES.

With `Cl.Oc1ccc2c3c1O[C@H]1[C@@H](O)CC[C@@]4(O)[C@@H](C2)N(CC2CCC2)CC[C@]314` [Nalbuphine, 17-(cyclobutylmethyl)-4,5α-epoxymorphinian-3,6α, 14-triol, hydrochloride], in data set [1] (60 mg BID, N = 128), the “HADS Anxiety Subscale (0-21), change from Baseline to the Evaluation Period, mean (SD)” value is reported as −1.72 (3.0) and the “HADS Depression Subscale (0-21), change from Baseline to the Evaluation Period, mean (SD)” value is recorded as −0.68 (3.1). In data set [1] (120 mg BID, N = 120), the “HADS Anxiety Subscale (0-21), change from Baseline to the Evaluation Period, mean” value is recorded as −1.64 and the “HADS Depression Subscale (0-21), change from Baseline to the Evaluation Period, mean” value is −1.03. Further, in data set [2] (60 mg BID), the “Adverse Events Leading to Discontinuation: Dizziness” value is 0.8%, the “Adverse Events Leading to Discontinuation: Hallucination” value is listed as 1.6%, the “Adverse Events Leading to Discontinuation: Nausea” value was 9.5% and the “Adverse Events Leading to Discontinuation: Somnolence” value was 4.0%. Also, the “Adverse Events Leading to Discontinuation: Vomiting” value in data set [2] (60 mg BID) is given as 9.5%. Further, in data set [2] (60 mg BID, N = 128), the “Adverse Events Leading to Discontinuation, number of patients” value is 33 and the “Adverse Events Leading to Discontinuation, percent of patients” value stood at 26.2%. For the same compound, in data set [2] (60 mg BID, N = 128, hydrochloride), the “Serious Adverse Events (incidence)” value is 12.7%. For the same compound, the “Serious Adverse Events (incidence)” value in data set [2] (60 mg BID, N = 128, listed as NAL 60, hydrochloride) is 12.7%. Also, in data set [2] (120 mg BID), the “Adverse Events Leading to Discontinuation: Dizziness” value was 2.5%, the “Adverse Events Leading to Discontinuation: Hallucination” value was 2.5%, the “Adverse Events Leading to Discontinuation: Nausea” value is recorded as 10.0% and the “Adverse Events Leading to Discontinuation: Somnolence” value is recorded as 1.7%. Moreover, in data set [2] (120 mg BID), the “Adverse Events Leading to Discontinuation: Vomiting” value came out at 5.0%. In addition, in data set [2] (120 mg BID, N = 120), the “Adverse Events Leading to Discontinuation, number of patients” value amounted to 27 and the “Adverse Events Leading to Discontinuation, percent of patients” value is 22.5%. The “Serious Adverse Events (incidence)” value in data set [2] (120 mg BID, N = 120, hydrochloride) stood at 6.7%. Further, the “Serious Adverse Events (incidence)” value in data set [2] (120 mg BID, N = 120, listed as NAL 120, hydrochloride) is listed as 6.7%. Further, in data set [2] (ER tablets, both doses), the “mood effects (adverse event reporting, Skindex-10 mood domain, HADS)” value is “neutral in mood effects” and the safety profile entry is reported as “no adverse safety trends other than those expected from a centrally-acting opioid”.
